Assay results taken from ChEMBL document CHEMBL4033731, “Structural development of 1,2,3,4-tetrahydroisoquinoline-type positive allosteric modulators of prostacyclin receptor (IPPAMs) to improve metabolic stability, and investigation of metabolic fate” (Bioorg Med Chem Lett, 2017).
Active and inactive are the calls of the source. No cut-off for these calls is given here.

How the values were obtained:
[1] = Half life in human hepatic microsomes at 0.1 uM by HPLC-MS/MS method; assay type: ADME, Microsome; conditions: liver microsomes
[2] = target: Prostacyclin receptor (Homo sapiens) (UniProt P43119); assay: Positive allosteric modulator activity at human prostacyclin receptor expressed in CHO-K1 cells assessed as compound concentration needed to shift agonist concentration response curve leftward by 2-fold by measuring CAMP accumulation; assay type: cell-based
[3] = target: Prostacyclin receptor (Homo sapiens) (UniProt P43119); assay: Positive allosteric modulator activity at human prostacyclin receptor expressed in CHO-K1 cells assessed as compound concentration needed to shift agonist concentration response curve leftward by 2-fold by measuring CAMP accumulation at 100 uM; assay type: cell-based
[4] = Drug level in human hepatic microsomes treated with 10 uM of 2-((1-tert-butyl-1H-tetrazol-5-yl)(3,4-dihydroisoquinolin-2(1H)-yl)methyl)-6-fluorophenol assessed as drug formation at 10 uM incubated for 90 mins at 37 degC by HPLC-MS/MS method relative to control; assay type: ADME, Liver, Microsome; conditions: 1.5 h
[5] = Drug metabolism in human hepatic microsomes assessed as peak area for parent compound at 10 uM incubated for 90 mins at 37 degC by HPLC-MS/MS method relative to control; assay type: ADME, Microsome; conditions: liver microsomes, read-out: Stability
[6] = Drug metabolism in human hepatic microsomes assessed as 2-((1-tert-butyl-1H-tetrazol-5-yl)(3,4-dihydroisoquinolin-2(1H)-yl)methyl)-4-fluorophenol formation at 10 uM incubated for 90 mins at 37 degC by HPLC-MS/MS method relative to control; assay type: ADME, Liver, Microsome; conditions: 1.5 h
[7] = Drug metabolism in human hepatic microsomes assessed as 2-((3,4-dihydroisoquinolin-2(1H)-yl)(1-(1-hydroxy-2-methylpropan-2-yl)-1H-tetrazol-5-yl)methyl)-6-fluorophenol formation at 10 uM incubated for 90 mins at 37 degC by HPLC-MS/MS method relative to control; assay type: ADME, Liver, Microsome; conditions: 1.5 h

Chain of Prostacyclin receptor (Homo sapiens) (P43119 whole entry): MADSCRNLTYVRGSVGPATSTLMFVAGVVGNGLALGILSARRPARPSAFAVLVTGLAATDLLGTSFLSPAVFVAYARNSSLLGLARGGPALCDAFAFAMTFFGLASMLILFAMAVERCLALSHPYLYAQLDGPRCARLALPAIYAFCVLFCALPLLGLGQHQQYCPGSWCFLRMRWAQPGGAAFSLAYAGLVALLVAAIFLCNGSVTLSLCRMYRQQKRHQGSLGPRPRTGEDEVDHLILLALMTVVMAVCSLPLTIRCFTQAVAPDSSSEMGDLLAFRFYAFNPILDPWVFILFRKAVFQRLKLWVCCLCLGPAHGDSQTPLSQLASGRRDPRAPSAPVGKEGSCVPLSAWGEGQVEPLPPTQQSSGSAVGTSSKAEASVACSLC

SMILES | half-life at 0.1 µM [1] [min] | Activity [2] | other results
CC(C)(C)n1nnnc1C(c1ccccc1)N1CCc2ccccc2C1 (centres undefined) | 6 | 6.9 µM | 
CC(C)(C)NC(=O)C(c1ccccc1)N1CCc2ccccc2C1 (centres undefined) | 6 | inactive | Activity [3]: inactive
COc1ccccc1C(c1nnnn1C(C)(C)C)N1CCC2CCCCC2C1 (centres undefined) | 3 | 6.2 µM | 
CC(C)(C)n1nnnc1C(c1cccc(O)c1O)N1CCc2ccccc2C1 (centres undefined) |  |  | Drug metabolism [4]: Metabolite_Detected
COc1ccccc1C(c1nnnn1C(C)(C)C)N1CCc2ccccc2C1 (centres undefined) | 8 | 4.3 µM | 
CC(C)(CO)n1nnnc1C(c1cccc(F)c1O)N1CCc2ccccc2C1 (centres undefined) |  |  | Drug metabolism [4]: Metabolite_Detected
COc1ccccc1C(c1nnnn1C(C)(C)C)N1CCc2ccc(F)cc2C1 (centres undefined) | 6 | 15.2 µM | 

Now from value to compound, other results behind:

half-life at 0.1 µM [1] [min] | Activity [2] | SMILES | other results
5 | 12 µM | CC(C)(C)n1nnnc1C(c1cc(F)ccc1O)N1CCc2ccccc2C1 (centres undefined) | 
3 | 4.7 µM | CC(C)(C)n1nnnc1C(c1ccccc1F)N1CCc2ccccc2C1 (centres undefined) | 
7 | 1.4 µM | CC(C)(C)n1nnnc1C(c1ccccc1O)N1CCc2ccccc2C1 (centres undefined) | 
21 | 8.2 µM | CC(C)(C)n1nnnc1C(c1cccc(F)c1O)N1CCc2ccccc2C1 (centres undefined) | remaining at 1.5 h, 10 µM [5]: 1.04%; Drug metabolism [6]: Metabolite_Detected; Drug metabolism [7]: Metabolite_Detected
